Laboratory results taken from ChEMBL document CHEMBL1201862, “PubChem BioAssay data set” (2004).
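1) Cells in 96-well plates. 2) Compound, 48 h, 5 concentrations. 3) Linear interpolation between surrounding doses. 4) Unreached endpoint = highest concentration. At the GI50, growth is halved.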 Active and inactive are the calls of the source. Cut-off read from the data, not from the text of the source: active = GI50 up to about 1.1 µM and inactive = higher.

Tests used:
Experiment in all cases: inhibition of tumour cell growth, NCI panel, 48 h
[1] = system: NCI-H226
[2] = system: SNB-75
[3] = system: PC-3
[4] = system: T47D
[5] = system: TK-10
[6] = system: K562
[7] = system: EKVX
[8] = system: KM12
[9] = system: SK-MEL-28
[10] = system: BT-549
[11] = system: 786-0
[12] = system: MOLT-4
[13] = system: UACC-62
[14] = system: SR
[15] = system: HCC 2998
[16] = system: MDA-N
[17] = system: MCF7
[18] = system: LOX IMVI
[19] = system: NCI/ADR-RES
[20] = system: COLO 205
[21] = system: UACC-257
[22] = system: OVCAR-5
[23] = system: OVCAR-3
[24] = system: HCT-116
[25] = system: OVCAR-4
[26] = system: NCI-H460
[27] = system: A549
[28] = system: UO-31
[29] = system: SF-268
[30] = system: M14
[31] = system: SN12C
[32] = system: CAKI-1
[33] = system: MDA-MB-231
[34] = system: SF-295
[35] = system: DU-145
[36] = system: Hs-578T
[37] = system: HL-60
[38] = system: SK-MEL-2
[39] = system: HOP-62
[40] = system: HT-29
[41] = system: U-251
[42] = system: CCRF-CEM
[43] = system: SF-539
[44] = system: SNB-19
[45] = system: RXF 393
[46] = system: NCI-H23
[47] = system: SW-620
[48] = system: MDA-MB-435
[49] = system: ACHN
[50] = system: NCI-H522
[51] = system: IGROV-1
[52] = system: HCT-15
[53] = system: HOP-92
[54] = system: A498
[55] = system: Malme-3M
[56] = system: RPMI-8226
[57] = system: OVCAR-8
[58] = system: SK-OV-3
[59] = system: SK-MEL-5

SMILES: O=C(Oc1cccnc1)c1cc2cc(CCl)ccc2oc1=O
- GI50 [1]: 66.1 µM (inactive)
- GI50 [2]: 29.7 µM (inactive)
- GI50 [3]: 17.3 µM (inactive)
- GI50 [4]: 23.3 µM (inactive)
- GI50 [5]: 20.8 µM (inactive)
- GI50 [6]: 19.5 µM (inactive)
- GI50 [7]: 21.5 µM (inactive)
- GI50 [8]: 31.6 µM (inactive)
- GI50 [9]: 32.4 µM (inactive)
- GI50 [10]: 24.8 µM (inactive)
- GI50 [11]: 18.5 µM (inactive)
- GI50 [12]: 23.3 µM (inactive)
- GI50 [13]: 8.71 µM (inactive)
- GI50 [14]: 24 µM (inactive)
- GI50 [15]: 57.7 µM (inactive)
- GI50 [16]: 26.5 µM (inactive)
- GI50 [17]: 3.15 µM (inactive)
- GI50 [18]: 21 µM (inactive)
- GI50 [19]: 29.5 µM (inactive)
- GI50 [20]: 27.2 µM (inactive)
- GI50 [21]: 30.6 µM (inactive)
- GI50 [22]: 22.6 µM (inactive)
- GI50 [23]: 25.5 µM (inactive)
- GI50 [24]: 17.7 µM (inactive)
- GI50 [25]: 24.3 µM (inactive)
- GI50 [26]: 31 µM (inactive)
- GI50 [27]: 65.3 µM (inactive)
- GI50 [28]: 20 µM (inactive)
- GI50 [29]: 20.8 µM (inactive)
- GI50 [30]: 21.4 µM (inactive)
- GI50 [31]: 21.6 µM (inactive)
- GI50 [32]: 18.7 µM (inactive)
- GI50 [33]: 20.8 µM (inactive)
- GI50 [34]: > 100 µM (inactive)
- GI50 [35]: 18.8 µM (inactive)
- GI50 [36]: 25.4 µM (inactive)
- GI50 [37]: 22.8 µM (inactive)
- GI50 [38]: 21.7 µM (inactive)
- GI50 [39]: 76.2 µM (inactive)
- GI50 [40]: 17.1 µM (inactive)
- GI50 [41]: 24.3 µM (inactive)
- GI50 [42]: 20.7 µM (inactive)
- GI50 [43]: 44.2 µM (inactive)
- GI50 [44]: 61.9 µM (inactive)
- GI50 [45]: 16.4 µM (inactive)
- GI50 [46]: 19.6 µM (inactive)
- GI50 [47]: 35.3 µM (inactive)
- GI50 [48]: 25.9 µM (inactive)
- GI50 [49]: 18.9 µM (inactive)
- GI50 [50]: 17 µM (inactive)
- GI50 [51]: 25.5 µM (inactive)
- GI50 [52]: 23.8 µM
- GI50 [53]: 20.6 µM (inactive)
- GI50 [54]: 48.5 µM (inactive)
- GI50 [55]: 22.7 µM (inactive)
- GI50 [56]: 24.5 µM (inactive)
- GI50 [57]: 33.5 µM (inactive)
- GI50 [58]: > 100 µM (inactive)
- GI50 [59]: 44.6 µM (inactive)

SMILES: Cn1c2ccc(F)cc2c2ccc3c(c21)C(=O)C=CC3=O
- GI50 [1]: 20.3 µM (inactive)
- GI50 [2]: 33.3 µM (inactive)
- GI50 [3]: 8.67 µM (inactive)
- GI50 [4]: 2.77 µM (inactive)
- GI50 [5]: 4.56 µM (inactive)
- GI50 [6]: 1.63 µM (inactive)
- GI50 [7]: 16 µM (inactive)
- GI50 [8]: 31.5 µM (inactive)
- GI50 [9]: 13.8 µM (inactive)
- GI50 [10]: 14 µM (inactive)
- GI50 [11]: 3.41 µM (inactive)
- GI50 [12]: 0.9 µM (active)
- GI50 [13]: 20.5 µM (inactive)
- GI50 [14]: 1.56 µM (inactive)
- GI50 [15]: 26.9 µM (inactive)
- GI50 [16]: 13.3 µM (inactive)
- GI50 [17]: 2.2 µM (inactive)
- GI50 [18]: 6.17 µM (inactive)
- GI50 [19]: 20.2 µM (inactive)
- GI50 [20]: 7.08 µM (inactive)
- GI50 [21]: 9.86 µM (inactive)
- GI50 [22]: 43.6 µM (inactive)
- GI50 [23]: 7.21 µM (inactive)
- GI50 [24]: 6.73 µM (inactive)
- GI50 [25]: 5.14 µM (inactive)
- GI50 [26]: > 57.3 µM (inactive)
- GI50 [27]: > 64.1 µM (inactive)
- GI50 [28]: 7.52 µM (inactive)
- GI50 [29]: 21 µM (inactive)
- GI50 [30]: 12.1 µM (inactive)
- GI50 [31]: 15.4 µM (inactive)
- GI50 [32]: 4.23 µM (inactive)
- GI50 [33]: 4.09 µM (inactive)
- GI50 [34]: 66.1 µM (inactive)
- GI50 [35]: 22 µM (inactive)
- GI50 [36]: 29.9 µM (inactive)
- GI50 [37]: 0.598 µM (active)
- GI50 [38]: 23.1 µM (inactive)
- GI50 [39]: > 66.5 µM (inactive)
- GI50 [40]: 19.5 µM (inactive)
- GI50 [41]: 14.3 µM (inactive)
- GI50 [42]: 0.544 µM (active)
- GI50 [43]: 16.6 µM (inactive)
- GI50 [44]: 50.8 µM (inactive)
- GI50 [45]: 3.28 µM (inactive)
- GI50 [46]: 13.8 µM (inactive)
- GI50 [47]: 2.66 µM (inactive)
- GI50 [48]: 16.4 µM (inactive)
- GI50 [49]: 5.85 µM (inactive)
- GI50 [50]: 2.15 µM (inactive)
- GI50 [51]: 14.6 µM (inactive)
- GI50 [52]: 13.7 µM
- GI50 [53]: 6.22 µM (inactive)
- GI50 [54]: 55.7 µM (inactive)
- GI50 [55]: 8.71 µM (inactive)
- GI50 [56]: 6.93 µM (inactive)
- GI50 [57]: 9.35 µM (inactive)
- GI50 [58]: 61 µM (inactive)
- GI50 [59]: 16.9 µM (inactive)

SMILES: CC(C)C(Br)CC/C(CBr)=C(\Cl)CCl (configuration not stated)
- GI50 [1]: 2.75 µM (inactive)
- GI50 [2]: 5.19 µM (inactive)
- GI50 [3]: 6.08 µM (inactive)
- GI50 [4]: 1.63 µM (inactive)
- GI50 [5]: 7.93 µM (inactive)
- GI50 [6]: 0.682 µM (active)
- GI50 [7]: 17.9 µM (inactive)
- GI50 [8]: 5.61 µM (inactive)
- GI50 [9]: 2.83 µM (inactive)
- GI50 [10]: 1.78 µM (inactive)
- GI50 [11]: 1.81 µM (inactive)
- GI50 [12]: 0.589 µM (active)
- GI50 [13]: 2.49 µM (inactive)
- GI50 [14]: 0.598 µM (active)
- GI50 [15]: 13.4 µM (inactive)
- GI50 [16]: 1.85 µM (inactive)
- GI50 [17]: 6.15 µM (inactive)
- GI50 [18]: 0.355 µM (active)
- GI50 [19]: 3.33 µM (inactive)
- GI50 [20]: 3.4 µM (inactive)
- GI50 [21]: 3.03 µM (inactive)
- GI50 [22]: 10.4 µM (inactive)
- GI50 [23]: 3.3 µM (inactive)
- GI50 [24]: 2 µM (inactive)
- GI50 [25]: 2.5 µM (inactive)
- GI50 [26]: 12.5 µM (inactive)
- GI50 [27]: 16.3 µM (inactive)
- GI50 [28]: 6.71 µM (inactive)
- GI50 [29]: 4.37 µM (inactive)
- GI50 [30]: 1.79 µM (inactive)
- GI50 [31]: 2.99 µM (inactive)
- GI50 [32]: 4.98 µM (inactive)
- GI50 [33]: 2.64 µM (inactive)
- GI50 [34]: 15.1 µM (inactive)
- GI50 [35]: 12.6 µM (inactive)
- GI50 [36]: 3.11 µM (inactive)
- GI50 [37]: 0.585 µM (active)
- GI50 [38]: 2.19 µM (inactive)
- GI50 [39]: 16.3 µM (inactive)
- GI50 [40]: 2.07 µM (inactive)
- GI50 [41]: 6.25 µM (inactive)
- GI50 [42]: 0.135 µM (active)
- GI50 [43]: 3.59 µM (inactive)
- GI50 [44]: 16.9 µM (inactive)
- GI50 [45]: 1.81 µM (inactive)
- GI50 [46]: 3.19 µM (inactive)
- GI50 [47]: 1.82 µM (inactive)
- GI50 [48]: 2.35 µM (inactive)
- GI50 [49]: 15 µM (inactive)
- GI50 [50]: 0.689 µM (active)
- GI50 [51]: 1.89 µM (inactive)
- GI50 [52]: 2.11 µM
- GI50 [53]: 2.06 µM (inactive)
- GI50 [54]: 18.6 µM (inactive)
- GI50 [55]: 5.37 µM (inactive)
- GI50 [56]: 2 µM (inactive)
- GI50 [57]: 3.1 µM (inactive)
- GI50 [58]: 2.94 µM (inactive)
- GI50 [59]: 1.79 µM (inactive)
